The test system of data set [1] is Neuro2a cells transfected with G93A plasmids. Briefly: LDH-Glo cytotoxicity assay in G93A-transfected Neuro2a. Type of data set: cell-based, mouse. To be noted: 10 μM. The protocol:
We next assayed cytotoxicity by measuring lactate dehydrogenase (LDH) release with a LDH-Glo™ cytotoxicity assay. Cells were treated with plasmids encoding G93A and the Sh56-RNAi sequence with or without compound 2a, while supernatants were used to measure LDH contents. Overexpression of G93A increased the release of LDH by Neuro2a cells, when compared with cells transfected with LacZ-encoding plasmids or with LacZ+Sh56 plasmids (FIG. 3E). […] On the other hand, LDH release increased when cells received G93A plasmids along with Sh56 plasmids.
LDH cytotoxicity was run on 96 well plates using LDH-Glo™ Cytotoxicity Assay (Promega). Briefly, Neuro2a cells were transfected with plasmids encoding pCMV-LacZ; pcDNA3.1(+)SOD1G93A with or without VPS35 short interfering plasmids (Sh56) or compound 2a (10 μM). After 48 hours, 5 μl of supernatants were 100 fold diluted in LDH storage buffer (Tris-HCl 200 mM, 10% Glycerol, 1% BSA, Sigma-Aldrich) and used to determine LDH, according to manufacturer's recommendations. Maximum LDH Release Control was obtained lysing untreated Neuro2a cells with 2 μL of 10% Triton X-100 (Sigma-Aldrich). In each experiment we calculated % Cytotoxicity=(Exp.LDH Release-Medium Background)/(Max LDH Release Control-Medium Background), and we run parallel positive controls treating cells with 200 μM H2O2.

Data set [2] in a line: Brain uptake of compound 2a in C57BL6J mice (LC-MS/MS). Format: in vivo. The note with it: 10 mg/Kg/day intraperitoneal; 1, 7, 15 and 30 days; saline perfused.
Protocol: We run a pharmacokinetic assay on C57BL6J mice that received daily intraperitoneal injections of compound 2a (10 mg/Kg/day). Mice were sacrificed after 1, 7, 15 and 30 days saline perfused to avoid the CNS contamination of compounds contained in blood circulation and brains used for the determination of compound 2a levels by mass spectrometry.
Healthy mice were daily injected with vehicle or compound 2a (10 mg/kg) and sacrificed after 1, 7, 15 and 30 days. Upon saline perfusion, brains were dissociated from skulls, carefully weighted and rapidly stored in dry ice. Then, brains (˜400 mg) were checked for the presence of Compound 2a. […] After the extraction, each biological sample was re-suspended in 60 μl of LC/MS grade water and 5 μl analyzed by LC-MS/MS using the UPLC 1290 (Agilent Technologies) coupled to the TripleTOF 5600+ mass spectrometer (SCIEX) in positive mode. A Waters ACQUITY UPLC BEH HILIC column (2.1×10 mm, 1.7 μm) was used for the chromatographic separation through a gradient of solvent A (ACN+0.1% FA) and solvent B (H2O+0.1% FA). Calibration curves were constructed by plotting the peak area versus the corresponding concentrations using MultiQuant 2.1 software (SCIEX).
For another data set, the system named is VPS26. Briefly: VPS26 MFI in NeuN+ MNs of G93A mice. Type of data set: in vivo, mouse. To be noted: 10 mg/kg, day 100. An excerpt: We next assayed retromer proteins labelling sections of mice sacrificed at day 100 for VPS35 and NeuN. […] Similarly, we observed that VPS26 levels were increased in G93A mice receiving compound 2a (FIG. 11B). We further corroborated our experimental finding observing that compound 2a increased retromer functionality. The cation-independent mannose 6-phosphate receptor (CI-MPR) is a cargo (Arighi et al., 2004) of the retromer complex that is unstable in VPS26 knockout cells (Seaman 2004). We observed a substantial reduction of CI-MPR MFI levels in MNs of vehicle-treated G93A mice when compared with WT litters (FIG. 11C). […]
Fluorescence intensity levels of VPS35, VPS26, Sortilin, CTSD and Ubiquitin were calculated using NHI-Image J software (US National Institutes of Health) according to the following protocol: stacks of confocal images were used to generate the maximal projections (Las-X) and then post-processed by NHI-Image J to crop single NeuN^+ MNs from the ventral horn of the spinal cord. We next performed background (calculated on adjacent slices only receiving secondary antibodies) subtraction for each channel, before applying the NHI-Image J mean filter (with radius 2.0 pixels) to calculate mean NeuN fluorescence levels in individual MN. […] On this selected ROI, we calculated mean fluoresce levels (MFI) of each protein.

In a further data set the test system is Cathepsin D (CTSD). Description: Cathepsin D expression and maturation in G93A mice. To be noted: 10 mg/kg, day 100. Format: in vivo, mouse. The text has this:
We next investigated Cathepsin D (CTSD) expression and distribution in G93A mice, since it is known that the trafficking of this lysosomal enzyme involves the retromer complex (Seaman 2004). In humans, maturation of CTSD starts with a pre-pro-CTSD that is converted to pro-CTSD (52 kDa) in the endoplasmic reticulum. Recycling of pro-CTSD, and its downstream migration to acidic compartments involves CI-MPR and the retromer pathway. In late endosomes, pro-CTSD is further processed to an intermediate form (48 kDa), and finally converted to mature CTSD (34 kDa) in lysosomes (Laurent-Matha 2006). The inactivation of VPS35 or the knockdown of VPS26 affect the maturation of CTSD. We scored CTSD levels in equal amounts of lumbar SC extracts obtained from vehicle-treated WT, G93A mice receiving the vehicle, and G93A treated with lead 2a. […] We next analyzed CTSD levels in MNs by confocal microscopy. We observed a significant reduction of this protease in MNs of vehicle-treated G93A, while such levels increased in G93A mice treated with compound 2a (FIG. 11F). Similarly, numbers of CTSD^+ puncta in lumbar NeuN^+ MNs were reduced in vehicle-treated G93A MNs, while they increased in compound 2a-treated mice (FIG. 11F).
Fluorescence intensity levels of VPS35, VPS26, Sortilin, CTSD and Ubiquitin were calculated using NHI-Image J software (US National Institutes of Health) according to the following protocol: stacks of confocal images were used to generate the maximal projections (Las-X) and then post-processed by NHI-Image J to crop single NeuN^+ MNs from the ventral horn of the spinal cord. We next performed background (calculated on adjacent slices only receiving secondary antibodies) subtraction for each channel, before applying the NHI-Image J mean filter (with radius 2.0 pixels) to calculate mean NeuN fluorescence levels in individual MN. Using this approach, we established a region of interest (ROI) that gated single MN. On this selected ROI, we calculated mean fluoresce levels (MFI) of each protein.

The target in another data set is VPS35 (Mus musculus, UniProt Q9EQH3+Q9QZ88). Description: VPS35 western blot in spinal cord extracts of G93A mice. Format: in vivo. The note with it: 10 mg/kg, day 100. The method, then: Lumbar spinal cords were dissected from saline perfused mice and rapidly homogenized in the following lysis buffer: Tris-HCl 10 mM pH 8, EDTA pH 8 1 mM, NaCl 100 mM, NP40 1% and protease inhibitor cocktail (Sigma). Protein extracts were obtained using a tight-fitting glass Potter tissue grinder (1 ml; Wheaton) and then sonicated at a frequency of 20 kHz (10 times-1s). Protein lysates from cells cultures were obtained from plates receiving PBS1× washing and subsequently the lysis buffer followed by sonication. Protein concentrations were measured by BCA protein assay kit (Thermofisher) according to the manufacturer's recommendations. Ten μg of protein extract was loaded on 10% Mini-PROTEAN TGX Stain-Free precast gels for PAGE (Bio-Rad). Gel electrophoresis was performed at 100 V for 2 hours. Gels were transferred on Immobilon®-P PVDF membrane according to the manufacturer's instructions (Millipore). Blots were blocked in 5% BSA in Tris buffered saline plus 0.1% Tween-20 (TBS-T) for 1 hour before receiving primary antibodies: goat α-VPS35 1:800 (ab10099, Abcam); rabbit α-VPS26b 1:1000 (15915-1-AP, ProteinTech); rabbit α-VPS29 1:1000 (ab236796 Abcam); mouse α-βActin 1:25000 (Sigma); mouse α-Golgin97 1:1000 (Invitrogen); mouse α-Ubiquitin 1:500 (Merk) overnight at 4° C. on shaker. […] Quantifications were done using the Image Lab 6.0.1 software (Bio-Rad).
In general terms: A western blot detects proteins with antibodies after separation by electrophoresis.

This is an account of results in US20220213030A1, “AMINOGUANIDINE HYDRAZONES AS RETROMER STABILIZERS USEFUL FOR TREATING NEUROLOGICAL DISEASES” (OSPEDALE SAN RAFFAELE SRL, priority 2019, published 2022).

For the compound `N=C(N)NN=Cc1cccc(C=NNC(=N)N)c1` [Compound 2a, 1,3-Bis-amino guanidine phenyl hydrazone], the LDH release entry in data set [1] (cells transfected with G93A plasmids and Sh56 plasmids) is “high release of LDH was observed”. The LDH release entry in data set [1] (cells transfected with G93A plasmids, 48 hours) is recorded as “significantly reduced LDH release”. For the same compound, in data set [2], the “compound levels in the brain (ability to access the CNS)” value is “significant amounts of compound 2a in the brain”. The “VPS26 levels (MFI)” value with VPS26 was “increased”. Moreover, in the data set on Cathepsin D (CTSD), the “CTSD levels in MNs (confocal MFI)” value is recorded as “increased”; the “levels of mature CTSD (WB, lumbar SC extracts)” value is “significantly increased”; the “numbers of CTSD+ puncta in lumbar NeuN+ MNs” value was “increased”. The “VPS35 levels in SC extracts (WB)” value on VPS35 is “increase VPS35 and VPS26b levels”.
